One experiment deals with T1, KRas^G12D (Homo sapiens, UniProt P01116, G12D).
T1 construct: […]; biotin (biotinylated); purchased Accelegan Inc
As to the kind of experiment: KRas binding assay (TR-FRET displacement of Cy5 labelled tracer).

The next experiment addresses T2, KRas^WT (Homo sapiens, UniProt P01116).
T2 construct: […]; biotin (biotinylated); purchased Accelegan Inc
The description is as above.

In a further experiment the target is T3, KRas^G12S (Homo sapiens, UniProt P01116, G12S).
T3 construct: […]; biotin (biotinylated); purchased Accelegan Inc
The description is as above.

The next experiment concerns the target T4, KRas^G12V (Homo sapiens, UniProt P01116, G12V).
T4 construct: […]; biotin (biotinylated); purchased Accelegan Inc
The description is as above.

In another experiment the target is T5, KRas^G12R (Homo sapiens, UniProt P01116, G12R).
T5 construct: […]; biotin (biotinylated); purchased Accelegan Inc
The description is as above.

A further experiment concerns the target KRas^G13D (Homo sapiens, UniProt P01116, G13D). As to the kind of experiment: biochemical.
The target in another experiment is KRas^G12C (Homo sapiens, UniProt P01116, G12C). As to the kind of experiment: biochemical.
The target of a further experiment is KRas^Q61H (Homo sapiens, UniProt P01116, Q61H). As to the kind of experiment: biochemical.
The target in the next experiment is T6, KRas^G12A (Homo sapiens, UniProt P01116, G12A).
T6 construct: […]; biotin (biotinylated); purchased Accelegan Inc
As to the kind of experiment: KRas binding assay (TR-FRET displacement of Cy5 labelled tracer). (TR-FRET usually uses a lanthanide donor and a delayed reading to cut background.)

The text below walks through data of patent US12421253B2 (Mirati Therapeutics, Inc., priority 2020, dated 2025).

T4 sequence (P01116 1-169 isoform P01116-2 G12V): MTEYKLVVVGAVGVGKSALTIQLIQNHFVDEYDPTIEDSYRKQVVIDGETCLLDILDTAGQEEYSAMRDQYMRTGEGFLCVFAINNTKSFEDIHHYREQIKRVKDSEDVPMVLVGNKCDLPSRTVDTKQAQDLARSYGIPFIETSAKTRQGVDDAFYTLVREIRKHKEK
T5 sequence (P01116 1-169 isoform P01116-2 G12R): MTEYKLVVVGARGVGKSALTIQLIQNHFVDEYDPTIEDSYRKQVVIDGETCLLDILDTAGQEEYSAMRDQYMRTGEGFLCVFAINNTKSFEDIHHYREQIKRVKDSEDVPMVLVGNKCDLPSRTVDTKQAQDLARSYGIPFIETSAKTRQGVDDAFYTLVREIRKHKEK
T1 sequence (P01116 1-169 isoform P01116-2 G12D): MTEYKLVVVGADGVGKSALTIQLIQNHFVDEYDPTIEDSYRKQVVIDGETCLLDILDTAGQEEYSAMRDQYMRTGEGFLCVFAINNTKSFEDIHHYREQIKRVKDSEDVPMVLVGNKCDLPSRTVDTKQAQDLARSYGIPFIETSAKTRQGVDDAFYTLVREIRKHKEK
T6 sequence (P01116 1-169 isoform P01116-2 G12A): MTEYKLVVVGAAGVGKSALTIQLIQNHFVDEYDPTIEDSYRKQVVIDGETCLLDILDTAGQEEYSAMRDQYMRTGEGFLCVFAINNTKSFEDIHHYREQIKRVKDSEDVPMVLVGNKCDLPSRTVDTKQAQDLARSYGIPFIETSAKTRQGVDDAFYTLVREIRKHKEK
T2 sequence (P01116 1-169 isoform P01116-2): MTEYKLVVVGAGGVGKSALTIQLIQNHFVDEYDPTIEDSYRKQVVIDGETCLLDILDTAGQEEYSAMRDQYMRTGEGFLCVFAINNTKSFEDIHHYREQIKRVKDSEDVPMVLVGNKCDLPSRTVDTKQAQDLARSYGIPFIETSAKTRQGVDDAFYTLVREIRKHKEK
KRas^G13D, sequence (P01116 1-169 isoform P01116-2 G13D): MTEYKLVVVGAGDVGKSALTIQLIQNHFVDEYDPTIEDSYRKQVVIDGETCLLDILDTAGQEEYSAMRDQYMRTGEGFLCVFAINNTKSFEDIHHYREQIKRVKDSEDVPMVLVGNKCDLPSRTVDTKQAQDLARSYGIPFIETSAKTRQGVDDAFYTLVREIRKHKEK
KRas^Q61H, sequence (P01116 1-169 isoform P01116-2 Q61H): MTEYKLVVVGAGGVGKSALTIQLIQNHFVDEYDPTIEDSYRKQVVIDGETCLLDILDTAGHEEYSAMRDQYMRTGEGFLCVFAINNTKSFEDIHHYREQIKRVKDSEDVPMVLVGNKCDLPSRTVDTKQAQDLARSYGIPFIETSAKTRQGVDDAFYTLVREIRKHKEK
T3 sequence (P01116 1-169 isoform P01116-2 G12S): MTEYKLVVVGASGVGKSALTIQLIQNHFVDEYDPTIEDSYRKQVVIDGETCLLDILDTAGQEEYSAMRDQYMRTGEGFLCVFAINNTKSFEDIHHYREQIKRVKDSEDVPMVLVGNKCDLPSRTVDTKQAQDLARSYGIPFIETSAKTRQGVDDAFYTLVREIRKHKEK
KRas^G12C, sequence (P01116 1-169 isoform P01116-2 G12C): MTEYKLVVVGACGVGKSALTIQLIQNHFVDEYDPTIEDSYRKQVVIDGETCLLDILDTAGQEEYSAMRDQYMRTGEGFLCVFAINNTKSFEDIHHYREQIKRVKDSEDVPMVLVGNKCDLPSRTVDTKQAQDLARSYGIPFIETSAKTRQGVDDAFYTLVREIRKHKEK
Experimental for KRas^G12A: (§1) The ability of a compound to bind to KRas was measured using a TR-FRET displacement assay. […] After a 60-minute incubation at room temperature, the reaction was measured using a BMG LABTECH CLARIO star Plus via TR-FRET. […] The POC values were fit to a 4-parameter IC50 equation and the IC50 value reported.
Experimental for KRas^G12C: as §1
Experimental for KRas^G12D: as §1
Experimental for KRas^G12R: as §1
Experimental for KRas^G12S: as §1
Experimental for KRas^G12V: as §1
Experimental for KRas^G13D: as §1
Experimental for KRas^Q61H: as §1
Experimental for KRas^WT: as §1

On to `CCc1cccc2cccc(N3CCc4c(nc(OCC56CCCN5CCC6)nc4N4CCCC5(CC(=O)N5)C4)C3)c12` (stereo not drawn) [Example 16, 6-(7-(8-ethylnaphthalen-1-yl)-2-((hexahydro-1H-pyrrolizin-7a-yl)methoxy)-5,6,7,8-tetrahydropyrido[3,4-d]pyrimidin-4-yl)-1,6-diazaspiro[3.5]nonan-2-one], for which the IC50 at KRas^G12D worked out at 63 nM; at KRas^WT, 66 nM; on KRas^G12S, 45 nM; at KRas^G12V, 18 nM; on KRas^G12R, 28 nM; on KRas^G13D, 65 nM. In addition, the values for the concentration for half-maximal inhibition (IC50) against KRas^G12C, on KRas^Q61H and on KRas^G12A were 37 nM, 55 nM and 45 nM, respectively.

Take `CCc1cccc2cccc(N3CCc4c(nc(OCC56CCCN5CCC6)nc4N4CCOCC(C)(O)C4)C3)c12` (stereo not drawn) [Example 22, 4-(7-(8-ethylnaphthalen-1-yl)-2-((hexahydro-1H-pyrrolizin-7a-yl)methoxy)-5,6,7,8-tetrahydropyrido[3,4-d]pyrimidin-4-yl)-6-methyl-1,4-oxazepan-6-ol]: the IC50 turned out to be 68 nM on KRas^G12D; 105 nM on KRas^WT; 89 nM on KRas^G12S; 71 nM at KRas^G12V; 123 nM on KRas^G12R; 101 nM against KRas^G13D. The IC50 on KRas^G12C was 72 nM; at KRas^Q61H it was 95 nM; on KRas^G12A it was 93 nM.

Regarding `CCc1cccc2cccc(N3CCc4c(nc(OCC56CCCN5CCC6)nc4NCc4ccc5nncn5c4)C3)c12` [Example 39, N-([1,2,4]triazolo[4,3-a]pyridin-6-ylmethyl)-7-(8-ethylnaphthalen-1-yl)-2-((hexahydro-1H-pyrrolizin-7a-yl)methoxy)-5,6,7,8-tetrahydropyrido[3,4-d]pyrimidin-4-amine], the IC50 is 7110 nM on KRas^G12D; 1370 nM on KRas^WT; 592 nM on KRas^G12S; 221 nM on KRas^G12V; 239 nM at KRas^G12R; 1530 nM against KRas^G13D. Besides, the values for the concentration for half-maximal inhibition (IC50) on KRas^G12C, on KRas^Q61H and on KRas^G12A were 317 nM, 1640 nM and 425 nM, respectively.

`CCc1cccc2cccc(N3CCc4c(nc(OCC56CCCN5CCC6)nc4N4CC5CC(O)CC4C5)C3)c12` (stereo not drawn) [Example 41, 6-(7-(8-ethylnaphthalen-1-yl)-2-((hexahydro-1H-pyrrolizin-7a-yl)methoxy)-5,6,7,8-tetrahydropyrido[3,4-d]pyrimidin-4-yl)-6-azabicyclo[3.2.1]octan-3-ol]: the IC50 is 1300 nM at KRas^G12D; 543 nM on KRas^WT; 255 nM on KRas^G12S; 206 nM on KRas^G12V; 245 nM on KRas^G12R; 583 nM at KRas^G13D. Besides, the IC50 against KRas^G12C stood at 520 nM; against KRas^Q61H it was 685 nM; at KRas^G12A, 452 nM.

Turning to `CCc1cccc2cccc(N3CCc4c(nc(OCC56CCCN5CCC6)nc4N4CCCC(O)(C(F)F)C4)C3)c12` (stereo not drawn) [Example 44, 3-(difluoromethyl)-1-(7-(8-ethylnaphthalen-1-yl)-2-((hexahydro-1H-pyrrolizin-7a-yl)methoxy)-5,6,7,8-tetrahydropyrido[3,4-d]pyrimidin-4-yl)piperidin-3-ol], the half-maximal inhibitory concentration (IC50) on KRas^G12D stood at 162 nM; at KRas^WT, 191 nM; on KRas^G12S it was 202 nM; at KRas^G12V it was 200 nM; on KRas^G12R it was 308 nM; against KRas^G13D, 163 nM. The IC50 on KRas^G12C worked out at 232 nM; at KRas^Q61H, 226 nM; on KRas^G12A, 202 nM.

Consider `CCc1cccc2cccc(N3CCc4c(nc(OCC56CCCN5CCC6)nc4N4CCC(c5[nH]ncc5N)C4)C3)c12` (stereo not drawn) [Example 46, 5-(1-(7-(8-ethylnaphthalen-1-yl)-2-((hexahydro-1H-pyrrolizin-7a-yl)methoxy)-5,6,7,8-tetrahydropyrido[3,4-d]pyrimidin-4-yl)pyrrolidin-3-yl)-1H-pyrazol-4-amine], for which the IC50 turned out to be 6750 nM on KRas^G12D; 1820 nM at KRas^WT; 611 nM at KRas^G12S; 232 nM on KRas^G12V; 277 nM on KRas^G12R; 2860 nM on KRas^G13D. Further, the figures for the IC50 against KRas^G12C, against KRas^Q61H and at KRas^G12A were 401 nM, 2230 nM and 448 nM, respectively.

As to `CCc1cccc2cccc(N3CCc4c(nc(OCC56CCCN5CCC6)nc4N4CCCCCC4)C3)c12` [Example 49, 4-(azepan-1-yl)-7-(8-ethylnaphthalen-1-yl)-2-((hexahydro-1H-pyrrolizin-7a-yl)methoxy)-5,6,7,8-tetrahydropyrido[3,4-d]pyrimidine], the IC50 was determined as 465 nM at KRas^G12D; 579 nM at KRas^WT; 364 nM on KRas^G12S; 184 nM on KRas^G12V; 167 nM at KRas^G12R; 662 nM against KRas^G13D. Besides, the concentration for half-maximal inhibition (IC50) was 273 nM against KRas^G12C, 703 nM on KRas^Q61H and 317 nM on KRas^G12A.

Turning to `CCc1cccc2cccc(N3CCc4c(nc(OCC56CCCN5CCC6)nc4N4Cc5ccnn5CC(O)C4)C3)c12` (stereo not drawn) [Example 50, 5-(7-(8-ethylnaphthalen-1-yl)-2-((hexahydro-1H-pyrrolizin-7a-yl)methoxy)-5,6,7,8-tetrahydropyrido[3,4-d]pyrimidin-4-yl)-5,6,7,8-tetrahydro-4H-pyrazolo[1,5-a][1,4]diazepin-7-ol], the half-maximal inhibitory concentration (IC50) on KRas^G12D came out at 219 nM; at KRas^WT, 613 nM; on KRas^G12S, 330 nM; at KRas^G12V, 342 nM; on KRas^G12R, 284 nM; against KRas^G13D, 800 nM. The figures for the IC50 against KRas^G12C, against KRas^Q61H and on KRas^G12A were 299 nM, 808 nM and 569 nM, respectively.

For `CCc1cccc2cccc(N3CCc4c(nc(OCC56CCCN5CCC6)nc4N4CCCn5nccc5C4)C3)c12` [Example 51, 4-(7,8-dihydro-4H-pyrazolo[1,5-a][1,4]diazepin-5(6H)-yl)-7-(8-ethylnaphthalen-1-yl)-2-((hexahydro-1H-pyrrolizin-7a-yl)methoxy)-5,6,7,8-tetrahydropyrido[3,4-d]pyrimidine], the concentration for half-maximal inhibition (IC50) at KRas^G12D was 309 nM; at KRas^WT it was 1370 nM; on KRas^G12S, 669 nM; on KRas^G12V, 652 nM; at KRas^G12R it was 492 nM; against KRas^G13D, 2030 nM. For the same molecule, the 50% inhibitory concentration (IC50) against KRas^G12C was determined as 564 nM; against KRas^Q61H, 1930 nM; on KRas^G12A it was 1260 nM.

As to `CCc1cccc2cccc(N3CCc4c(nc(OCC56CCCN5CCC6)nc4N4CC5CNC(=O)C5C4)C3)c12` (stereo not drawn) [Example 52, 5-(7-(8-ethylnaphthalen-1-yl)-2-((hexahydro-1H-pyrrolizin-7a-yl)methoxy)-5,6,7,8-tetrahydropyrido[3,4-d]pyrimidin-4-yl)hexahydropyrrolo[3,4-c]pyrrol-1(2H)-one], the IC50 turned out to be 1230 nM on KRas^G12D; 2220 nM at KRas^WT; 584 nM at KRas^G12S; 348 nM on KRas^G12V; 723 nM on KRas^G12R; 1150 nM against KRas^G13D. The figures for the IC50 against KRas^G12C, on KRas^Q61H and on KRas^G12A were 662 nM, 1420 nM and 1270 nM, respectively.

As for `CCc1cccc2cccc(N3CCc4c(nc(OCC56CCCN5CCC6)nc4N4CCCC(c5ncn[nH]5)C4)C3)c12` (stereo not drawn) [Example 53, 4-(3-(1H-1,2,4-triazol-5-yl)piperidin-1-yl)-7-(8-ethylnaphthalen-1-yl)-2-((hexahydro-1H-pyrrolizin-7a-yl)methoxy)-5,6,7,8-tetrahydropyrido[3,4-d]pyrimidine], the IC50 at KRas^G12D was 2720 nM; on KRas^WT, 894 nM; on KRas^G12S, 854 nM; at KRas^G12V, 937 nM; at KRas^G12R, 397 nM; against KRas^G13D it was 1180 nM. Besides, the values for the IC50 on KRas^G12C, at KRas^Q61H and on KRas^G12A were 741 nM, 1150 nM and 548 nM, respectively.

Take `CCc1cccc2cccc(N3CCc4c(nc(OCC56CCCN5CCC6)nc4N4CCCCCCC4)C3)c12` [Example 54, 4-(azocan-1-yl)-7-(8-ethylnaphthalen-1-yl)-2-((hexahydro-1H-pyrrolizin-7a-yl)methoxy)-5,6,7,8-tetrahydropyrido[3,4-d]pyrimidine]: the 50% inhibitory concentration (IC50) at KRas^G12D was 1460 nM; at KRas^WT it was 943 nM; at KRas^G12S it was 924 nM; at KRas^G12V, 707 nM; on KRas^G12R, 663 nM; against KRas^G13D, 1080 nM. Further, the figures for the IC50 at KRas^G12C, against KRas^Q61H and on KRas^G12A were 755 nM, 1230 nM and 767 nM, respectively.

Turning to `CCc1cccc2cccc(N3CCc4c(nc(OCC56CCCN5CCC6)nc4N4CCCc5ncccc5C4)C3)c12` [Example 55, 6-(7-(8-ethylnaphthalen-1-yl)-2-((hexahydro-1H-pyrrolizin-7a-yl)methoxy)-5,6,7,8-tetrahydropyrido[3,4-d]pyrimidin-4-yl)-6,7,8,9-tetrahydro-5H-pyrido[3,2-c]azepine], the IC50 stood at 1160 nM at KRas^G12D; 2900 nM on KRas^WT; 1160 nM at KRas^G12S; 1100 nM on KRas^G12V; 744 nM at KRas^G12R; 3860 nM against KRas^G13D. Moreover, the half-inhibitory concentration (IC50) on KRas^G12C was 893 nM; at KRas^Q61H it was 4550 nM; on KRas^G12A, 2080 nM.

Broadly, the IC50 is the point on the concentration scale where inhibition reaches its midpoint. Lower therefore signals greater potency.
